Reference: ChEMBL document CHEMBL5291721, “A preclinical secondary pharmacology resource illuminates target-adverse drug reaction associations of marketed drugs” (Nat Commun, 2023)

How the values were obtained:
[1] = molecular target: T1, Androgen receptor (Homo sapiens, UniProt P10275)
T1 sequence (P10275 whole entry): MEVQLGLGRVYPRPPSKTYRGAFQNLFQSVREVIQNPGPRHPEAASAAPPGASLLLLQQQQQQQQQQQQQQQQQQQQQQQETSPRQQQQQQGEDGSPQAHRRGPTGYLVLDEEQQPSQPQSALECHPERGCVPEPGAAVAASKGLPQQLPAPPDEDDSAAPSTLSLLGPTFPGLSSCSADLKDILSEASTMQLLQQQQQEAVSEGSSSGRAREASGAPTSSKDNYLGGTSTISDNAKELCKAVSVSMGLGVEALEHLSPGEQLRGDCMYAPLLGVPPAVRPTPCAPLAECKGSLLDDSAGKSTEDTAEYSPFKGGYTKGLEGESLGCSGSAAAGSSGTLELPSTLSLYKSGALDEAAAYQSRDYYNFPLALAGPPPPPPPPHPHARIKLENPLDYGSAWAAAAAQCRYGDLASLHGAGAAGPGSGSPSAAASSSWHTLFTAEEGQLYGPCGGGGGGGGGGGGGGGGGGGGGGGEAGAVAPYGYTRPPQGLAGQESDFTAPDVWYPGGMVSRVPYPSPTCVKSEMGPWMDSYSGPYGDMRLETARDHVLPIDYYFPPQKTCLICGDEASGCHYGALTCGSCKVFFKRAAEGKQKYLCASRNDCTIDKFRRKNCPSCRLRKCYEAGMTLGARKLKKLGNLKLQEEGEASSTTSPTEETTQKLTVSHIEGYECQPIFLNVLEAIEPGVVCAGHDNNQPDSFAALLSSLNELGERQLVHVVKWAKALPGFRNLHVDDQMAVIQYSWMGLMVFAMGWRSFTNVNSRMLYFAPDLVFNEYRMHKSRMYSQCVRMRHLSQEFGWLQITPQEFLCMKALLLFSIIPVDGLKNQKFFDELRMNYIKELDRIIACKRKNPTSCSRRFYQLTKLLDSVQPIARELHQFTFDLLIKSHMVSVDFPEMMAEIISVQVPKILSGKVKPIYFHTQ

[2] = molecular target: Gamma-aminobutyric acid receptor subunit alpha-1 (Rattus norvegicus, UniProt P62813)
[3] = molecular target: T2, Androgen receptor (Rattus norvegicus, UniProt P15207); type: functional
T2 sequence (P15207 whole entry): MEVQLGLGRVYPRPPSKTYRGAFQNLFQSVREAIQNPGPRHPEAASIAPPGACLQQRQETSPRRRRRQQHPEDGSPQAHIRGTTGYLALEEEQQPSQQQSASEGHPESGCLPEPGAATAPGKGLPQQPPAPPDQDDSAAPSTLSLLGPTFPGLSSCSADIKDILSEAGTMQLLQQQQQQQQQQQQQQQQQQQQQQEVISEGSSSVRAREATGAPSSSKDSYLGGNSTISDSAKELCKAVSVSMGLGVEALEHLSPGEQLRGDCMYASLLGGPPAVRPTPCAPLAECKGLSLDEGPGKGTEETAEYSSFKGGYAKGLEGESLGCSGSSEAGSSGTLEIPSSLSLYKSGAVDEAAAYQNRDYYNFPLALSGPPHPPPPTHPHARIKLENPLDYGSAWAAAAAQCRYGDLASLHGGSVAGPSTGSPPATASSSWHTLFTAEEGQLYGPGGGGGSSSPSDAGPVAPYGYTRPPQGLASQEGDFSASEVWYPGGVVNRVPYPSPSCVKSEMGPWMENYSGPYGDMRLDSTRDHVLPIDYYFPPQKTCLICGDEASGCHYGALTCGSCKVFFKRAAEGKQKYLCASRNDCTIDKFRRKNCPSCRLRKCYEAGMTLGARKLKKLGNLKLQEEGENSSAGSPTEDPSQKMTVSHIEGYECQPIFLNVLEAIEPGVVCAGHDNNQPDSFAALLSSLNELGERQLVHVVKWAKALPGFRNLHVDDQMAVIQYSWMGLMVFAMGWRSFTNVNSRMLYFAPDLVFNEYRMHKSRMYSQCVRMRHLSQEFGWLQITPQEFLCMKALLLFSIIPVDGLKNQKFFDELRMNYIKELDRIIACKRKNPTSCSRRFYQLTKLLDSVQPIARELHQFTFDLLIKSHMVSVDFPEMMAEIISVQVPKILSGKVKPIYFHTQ

[4] = molecular target: T3, Corticotropin-releasing factor receptor 2 (Homo sapiens, UniProt Q13324)
T3 sequence (Q13324 whole entry): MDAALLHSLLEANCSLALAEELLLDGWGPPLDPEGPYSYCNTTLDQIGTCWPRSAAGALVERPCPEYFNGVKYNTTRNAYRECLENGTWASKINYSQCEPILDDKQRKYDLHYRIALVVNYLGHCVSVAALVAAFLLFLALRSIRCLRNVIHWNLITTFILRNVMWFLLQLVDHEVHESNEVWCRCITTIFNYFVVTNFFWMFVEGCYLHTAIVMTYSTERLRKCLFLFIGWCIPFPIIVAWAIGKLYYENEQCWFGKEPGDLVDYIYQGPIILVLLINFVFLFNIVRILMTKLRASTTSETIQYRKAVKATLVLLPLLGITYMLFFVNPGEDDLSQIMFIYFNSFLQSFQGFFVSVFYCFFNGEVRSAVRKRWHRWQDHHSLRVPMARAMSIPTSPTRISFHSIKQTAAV

[5] = molecular target: T4, Endothelin receptor type B (Homo sapiens, UniProt P24530)
T4 sequence (P24530 whole entry): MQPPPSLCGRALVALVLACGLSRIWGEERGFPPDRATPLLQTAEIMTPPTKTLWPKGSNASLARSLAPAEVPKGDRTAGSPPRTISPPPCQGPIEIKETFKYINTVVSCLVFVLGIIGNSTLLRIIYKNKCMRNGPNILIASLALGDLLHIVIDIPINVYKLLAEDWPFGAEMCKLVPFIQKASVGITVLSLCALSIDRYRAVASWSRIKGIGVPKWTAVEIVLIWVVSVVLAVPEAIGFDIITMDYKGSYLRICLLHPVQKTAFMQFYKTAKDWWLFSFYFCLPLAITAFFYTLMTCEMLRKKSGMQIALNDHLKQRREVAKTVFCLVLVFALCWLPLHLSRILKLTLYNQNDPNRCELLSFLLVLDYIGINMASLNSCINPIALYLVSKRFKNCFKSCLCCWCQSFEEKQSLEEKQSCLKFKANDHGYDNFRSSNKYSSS

[6] = molecular target: Substance-P receptor (Homo sapiens, UniProt P25103)
[7] = molecular target: Voltage-dependent N-type calcium channel subunit alpha-1B (Rattus norvegicus, UniProt Q02294); type: functional
[8] = molecular target: Histamine H2 receptor (Homo sapiens, UniProt P25021)
[9] = molecular target: D(1A) dopamine receptor (Homo sapiens, UniProt P21728)
Further: assay procedure not described here.

Sequence of Histamine H2 receptor (P25021 whole entry): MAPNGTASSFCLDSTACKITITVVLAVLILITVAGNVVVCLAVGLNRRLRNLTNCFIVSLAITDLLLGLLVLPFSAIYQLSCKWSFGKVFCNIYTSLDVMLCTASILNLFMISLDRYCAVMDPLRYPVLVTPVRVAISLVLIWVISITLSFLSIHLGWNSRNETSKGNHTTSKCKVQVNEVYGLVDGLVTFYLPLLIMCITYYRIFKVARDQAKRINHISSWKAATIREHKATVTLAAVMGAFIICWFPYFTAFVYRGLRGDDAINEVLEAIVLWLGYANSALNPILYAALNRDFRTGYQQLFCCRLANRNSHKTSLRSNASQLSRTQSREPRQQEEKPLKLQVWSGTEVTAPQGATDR
Sequence of Voltage-dependent N-type calcium channel subunit alpha-1B (Q02294 whole entry): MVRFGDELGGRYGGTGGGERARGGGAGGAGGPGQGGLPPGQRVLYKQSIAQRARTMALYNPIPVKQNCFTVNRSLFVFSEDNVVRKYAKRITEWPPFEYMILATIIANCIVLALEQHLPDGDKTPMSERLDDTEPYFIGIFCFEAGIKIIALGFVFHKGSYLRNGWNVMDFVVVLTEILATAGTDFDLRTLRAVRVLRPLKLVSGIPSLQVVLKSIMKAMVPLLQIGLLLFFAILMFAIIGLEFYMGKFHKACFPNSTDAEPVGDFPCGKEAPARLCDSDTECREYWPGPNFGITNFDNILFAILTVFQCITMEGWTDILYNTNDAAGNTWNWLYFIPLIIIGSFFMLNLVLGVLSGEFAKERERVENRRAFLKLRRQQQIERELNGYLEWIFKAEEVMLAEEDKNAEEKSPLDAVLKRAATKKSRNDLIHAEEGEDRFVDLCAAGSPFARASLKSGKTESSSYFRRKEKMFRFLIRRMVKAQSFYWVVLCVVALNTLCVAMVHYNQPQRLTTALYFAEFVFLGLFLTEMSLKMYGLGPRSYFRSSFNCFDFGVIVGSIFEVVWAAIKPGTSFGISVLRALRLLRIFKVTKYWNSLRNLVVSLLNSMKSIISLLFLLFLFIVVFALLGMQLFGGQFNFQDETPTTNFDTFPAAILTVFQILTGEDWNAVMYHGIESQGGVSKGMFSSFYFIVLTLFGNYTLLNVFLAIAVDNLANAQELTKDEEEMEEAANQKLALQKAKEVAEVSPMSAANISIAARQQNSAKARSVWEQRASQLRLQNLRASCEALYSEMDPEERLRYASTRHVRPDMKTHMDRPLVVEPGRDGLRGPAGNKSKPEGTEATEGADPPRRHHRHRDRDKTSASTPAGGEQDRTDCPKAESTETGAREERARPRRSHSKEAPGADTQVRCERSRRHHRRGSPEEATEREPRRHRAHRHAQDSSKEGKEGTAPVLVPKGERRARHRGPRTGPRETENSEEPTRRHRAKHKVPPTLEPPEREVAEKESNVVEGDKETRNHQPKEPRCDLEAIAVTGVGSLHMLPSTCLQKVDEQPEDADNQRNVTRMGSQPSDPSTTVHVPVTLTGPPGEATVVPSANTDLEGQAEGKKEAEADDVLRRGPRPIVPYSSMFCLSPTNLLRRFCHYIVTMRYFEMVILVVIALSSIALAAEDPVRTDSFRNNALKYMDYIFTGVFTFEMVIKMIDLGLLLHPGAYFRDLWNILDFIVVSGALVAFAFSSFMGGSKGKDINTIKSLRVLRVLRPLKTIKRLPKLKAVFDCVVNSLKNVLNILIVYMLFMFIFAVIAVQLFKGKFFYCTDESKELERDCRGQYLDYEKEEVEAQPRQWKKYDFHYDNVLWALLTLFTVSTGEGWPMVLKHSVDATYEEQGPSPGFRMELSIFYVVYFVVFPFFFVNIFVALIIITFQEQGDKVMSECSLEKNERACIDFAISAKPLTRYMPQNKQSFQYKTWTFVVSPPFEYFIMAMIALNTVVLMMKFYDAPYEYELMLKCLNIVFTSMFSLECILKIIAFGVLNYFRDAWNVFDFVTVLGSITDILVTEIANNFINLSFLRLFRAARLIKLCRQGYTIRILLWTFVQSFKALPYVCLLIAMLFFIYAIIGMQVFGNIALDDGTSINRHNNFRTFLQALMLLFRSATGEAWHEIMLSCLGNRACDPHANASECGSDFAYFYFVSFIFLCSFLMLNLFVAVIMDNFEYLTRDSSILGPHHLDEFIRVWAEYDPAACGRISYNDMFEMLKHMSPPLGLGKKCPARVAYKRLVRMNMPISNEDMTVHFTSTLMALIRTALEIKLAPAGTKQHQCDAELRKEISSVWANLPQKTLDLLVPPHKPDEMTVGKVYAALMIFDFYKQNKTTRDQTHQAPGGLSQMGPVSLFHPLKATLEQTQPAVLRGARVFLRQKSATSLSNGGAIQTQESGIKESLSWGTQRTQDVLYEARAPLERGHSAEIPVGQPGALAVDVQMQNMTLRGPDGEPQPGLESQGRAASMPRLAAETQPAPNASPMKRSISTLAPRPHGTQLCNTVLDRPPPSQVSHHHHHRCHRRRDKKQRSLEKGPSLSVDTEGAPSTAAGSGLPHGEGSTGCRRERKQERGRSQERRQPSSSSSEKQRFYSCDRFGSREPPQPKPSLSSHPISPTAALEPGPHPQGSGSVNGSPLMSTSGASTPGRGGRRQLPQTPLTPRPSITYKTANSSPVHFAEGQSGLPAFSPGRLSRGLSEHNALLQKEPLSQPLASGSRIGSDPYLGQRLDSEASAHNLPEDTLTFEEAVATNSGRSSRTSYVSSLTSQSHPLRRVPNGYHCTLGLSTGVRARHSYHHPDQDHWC
Sequence of Gamma-aminobutyric acid receptor subunit alpha-1 (P62813 whole entry): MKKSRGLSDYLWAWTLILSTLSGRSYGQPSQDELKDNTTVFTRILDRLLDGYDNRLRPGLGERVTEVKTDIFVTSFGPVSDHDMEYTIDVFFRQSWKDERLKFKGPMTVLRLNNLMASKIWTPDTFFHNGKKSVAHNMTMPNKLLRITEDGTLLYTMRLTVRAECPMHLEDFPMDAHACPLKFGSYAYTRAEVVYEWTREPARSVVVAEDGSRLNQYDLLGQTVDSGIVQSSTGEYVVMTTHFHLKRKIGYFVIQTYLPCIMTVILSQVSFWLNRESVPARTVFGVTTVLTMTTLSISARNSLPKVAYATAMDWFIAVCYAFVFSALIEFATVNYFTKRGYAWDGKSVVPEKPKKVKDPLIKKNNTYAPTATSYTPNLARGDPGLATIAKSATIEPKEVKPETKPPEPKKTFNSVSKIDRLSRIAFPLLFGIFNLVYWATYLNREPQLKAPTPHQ
Sequence of Substance-P receptor (P25103 whole entry): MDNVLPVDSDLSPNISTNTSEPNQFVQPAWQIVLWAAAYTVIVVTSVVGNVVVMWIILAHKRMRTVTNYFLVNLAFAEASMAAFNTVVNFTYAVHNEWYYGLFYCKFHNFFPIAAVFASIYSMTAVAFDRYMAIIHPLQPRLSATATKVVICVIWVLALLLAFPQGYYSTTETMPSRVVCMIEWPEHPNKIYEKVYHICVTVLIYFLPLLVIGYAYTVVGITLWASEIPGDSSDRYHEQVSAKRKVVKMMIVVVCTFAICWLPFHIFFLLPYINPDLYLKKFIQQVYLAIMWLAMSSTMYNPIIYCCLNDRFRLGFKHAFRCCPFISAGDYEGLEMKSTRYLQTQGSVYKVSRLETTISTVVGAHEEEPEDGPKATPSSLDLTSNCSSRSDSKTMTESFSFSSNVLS
Sequence of D(1A) dopamine receptor (P21728 whole entry): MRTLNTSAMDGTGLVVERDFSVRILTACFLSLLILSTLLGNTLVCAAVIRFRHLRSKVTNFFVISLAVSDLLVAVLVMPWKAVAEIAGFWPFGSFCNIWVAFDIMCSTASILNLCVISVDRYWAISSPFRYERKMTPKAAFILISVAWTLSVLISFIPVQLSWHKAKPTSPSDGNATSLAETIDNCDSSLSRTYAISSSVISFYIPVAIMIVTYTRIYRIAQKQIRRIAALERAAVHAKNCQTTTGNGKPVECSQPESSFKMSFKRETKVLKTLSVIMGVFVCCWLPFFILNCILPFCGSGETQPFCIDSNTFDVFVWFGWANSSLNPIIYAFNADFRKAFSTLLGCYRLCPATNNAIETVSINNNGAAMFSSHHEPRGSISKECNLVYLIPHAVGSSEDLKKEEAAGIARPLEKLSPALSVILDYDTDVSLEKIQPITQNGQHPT

With `CC1=CCC(C(C)(C)O)CC1O` (stereo unspecified) [SOBREROL] as the molecule, how does the AC50 [1] read?
Its AC50 is > 30 µM.

`NCC(CC(=O)O)c1ccccc1` (stereo unspecified) [PHENIBUT] was tested. Which AC50 [1] did it give?
Its AC50 is > 30 µM.

And the AC50 [2]?
The AC50 was > 30 µM.

Which AC50 [3] does the source give for `Cc1cccc(N2CC(CO)OC2=O)c1` (stereo unspecified) [TOLOXATONE] here?
The AC50 was > 30 µM.

For `C=C1CC[C@H](O)C/C1=C/C=C1\CCC[C@]2(C)[C@@H]([C@H](C)/C=C/[C@H](C)C(C)C)CC[C@@H]12` [ERGOCALCIFEROL], which AC50 [2] is on record?
Its AC50 is > 30 µM.

For `COc1cc(N2CCC(N3CCN(C)CC3)CC2)ccc1Nc1ncc(Cl)c(Nc2ccccc2P(C)(C)=O)n1` [BRIGATINIB], which AC50 [1] is on record?
Its AC50 is > 30 µM.

And the AC50 [2]?
Its AC50 is > 30 µM.

Which AC50 [3] does the source give for `COCC1=C(C(=O)O)N2C(=O)[C@@H](NC(=O)/C(=N\OC)c3csc(N)n3)[C@H]2SC1` [CEFPODOXIME] here?
Its AC50 is > 30 µM.

How did the AC50 [3] turn out when `Clc1ccc2c(N3CCN(CCCN4CCN(c5ccnc6cc(Cl)ccc56)CC4)CC3)ccnc2c1` [PIPERAQUINE] was run?
The AC50 was > 30 µM.

How did the AC50 [4] turn out when `O=C(O)c1cn(C2CC2)c2cc(N3CCNCC3)c(F)cc2c1=O` [CIPROFLOXACIN] was run?
Its AC50 is > 30 µM.

What about the AC50 [5] of the same molecule?
The AC50 was > 30 µM.

What about the AC50 [6] of the same molecule?
The AC50 was > 10 µM.

Which AC50 [2] does the source give for `Cc1cc(N)c2ccccc2[n+]1CCCCCCCCCC[n+]1c(C)cc(N)c2ccccc21` here?
Its AC50 is 24.6 µM.

Which AC50 [7] does the source give for `CC12CC3CC(C)(C1)CC(N)(C3)C2` [MEMANTINE] here?
The AC50 was > 10 µM.

And the AC50 [4]?
The AC50 was > 30 µM.

And the AC50 [5]?
The AC50 was > 30 µM.

`CN1C(=O)/C(=N\NC(N)=S)c2ccccc21` [METHISAZONE] was tested. Which AC50 [2] did it give?
Its AC50 is 12.3 µM.

With `CCCN[C@H]1CCc2nc(N)sc2C1` [PRAMIPEXOLE] as the molecule, how does the AC50 [8] read?
The AC50 was 3.86 µM.

How did the AC50 [2] turn out when `COc1cc2c(cc1OC)CC(=O)N(CCCN(C)C[C@H]1Cc3cc(OC)c(OC)cc31)CC2` [IVABRADINE] was run?
Its AC50 is > 30 µM.

For `Cc1cnc(C(=O)NCCc2ccc(S(=O)(=O)NC(=O)NC3CCCCC3)cc2)cn1` [GLIPIZIDE], which AC50 [7] is on record?
The AC50 was > 10 µM.

What about the AC50 [4] of the same molecule?
The AC50 was > 30 µM.

What about the AC50 [5] of the same molecule?
The AC50 was > 30 µM.

And the AC50 [8]?
Its AC50 is > 10 µM.

And the AC50 [6]?
The AC50 was > 10 µM.

With `CCC(C)C(CC)C(N)=O` (stereo unspecified) [VALNOCTAMIDE] as the molecule, how does the AC50 [3] read?
Its AC50 is > 30 µM.

Which AC50 [2] does the source give for `CCN(CC)C(=S)S` [DITIOCARB] here?
Its AC50 is > 30 µM.

For `CCOC(=O)C1=C(C)NC(C)=C(C(=O)OC)C1c1cccc([N+](=O)[O-])c1` (stereo unspecified) [NITRENDIPINE], which AC50 [7] is on record?
The AC50 was > 10 µM.

What about the AC50 [4] of the same molecule?
The AC50 was > 30 µM.

What about the AC50 [5] of the same molecule?
The AC50 was > 30 µM.

What about the AC50 [8] of the same molecule?
The AC50 was > 10 µM.

And the AC50 [9]?
Its AC50 is > 10 µM.

Which AC50 [1] does the source give for `CCCc1nc(C(C)(C)O)c(C(=O)O)n1Cc1ccc(-c2ccccc2-c2nnn[nH]2)cc1` [OLMESARTAN] here?
The AC50 was > 30 µM.

Which AC50 [2] does the source give for `COc1ccc(CN(CCN(C)C)c2ccccn2)cc1` [PYRILAMINE] here?
Its AC50 is > 30 µM.

For `CCOC(=O)[C@H](CCc1ccccc1)N[C@@H](C)C(=O)N(CC(=O)O)C1Cc2ccccc2C1`, which AC50 [2] is on record?
Its AC50 is > 30 µM.

With `Cc1cc(NC(=O)C2=C(O)c3ccccc3S(=O)(=O)N2C)no1` [ISOXICAM] as the molecule, how does the AC50 [2] read?
Its AC50 is > 30 µM.

`CCOC(=O)N1CSC[C@H]1C(=O)O` [TELMESTEINE] was tested. Which AC50 [1] did it give?
Its AC50 is > 30 µM.
